Assay results from patent US10550135B2, “Silicon incorporated quinolines with anti-malarial and anti-toxoplasmosis activity” (Council of Scientific & Industrial Research, priority 2016, dated 2020).

What was measured:
[1] = tested on: Plasmodium falciparum (3D7); test: Anti-malarial screening, P. falciparum 3D7 growth in human RBC culture, SybrGreen fluorescence; type: cell-based; conditions: for inhibition at 10 µM: primary screen, 3D7, 60 hours; for EC50: dose response, 10 μM to 1 nM dilution series, 3D7
Experimental: (§1) • a) Anti-malarial screening: Plasmodium falciparum (3D7; Malaria Research and Reference Reagent Resource Center ID NO: MRA-102) is cultured in the laboratory as per standard protocols [Moll et. al. 2008]. Briefly, P. falciparum is cultured using 2% hematocrit washed RBCs, separated from freshly collected human blood, in RPMI media containing glutamine, sodium bicarbonate and antibiotics. Parasites are routinely synchronized using 5% sorbitol treatment. Anti-malarial screens are carried out in two stages: 1) a primary screen at a fixed concentration of 10 μM to find out % inhibition of growth; and 2) a dose assay for finding out the IC50 of hits identified from the primary screen. In both assays the following steps are followed. 200 μL's of the diluted parasite culture (2% parasitemia and 2% hematocrit; at late ring stage), is added to each well in a 96 well plate pre-seeded with the compound of interest at the required concentration of 10 μM. The master stocks and dilutions of the compounds are prepared in cell culture grade DMSO. NOTE: DMSO only treatment control is done and the results are used for normalizing the data obtained from compound treatment. All compounds are plated in triplicates. Each 96 well plate also includes negative control (compound untreated culture) and positive control (standard anti-malarial treated culture). Standard anti-malarials used are chloroquine, artemisinine and atovaquone, each at 1 μM concentration. After plating, the culture is incubated in standard growth condition for 60 hours, after which the cultures are processed for testing the effect of compounds on parasite growth using SybrGreen staining and fluorescence measurements at 520 nm emission following excitation at 498 nm. Since only the parasites have DNA (as RBCs are devoid of nucleus), the SybrGreen signal is a direct indictor of parasite density in respective samples. Results are used to quantifying relative parasite growth (or conversely % inhibition of growth) in untreated, standard anti-malarial treated and test molecules treated P. falciparum cultures. Compounds showing greater than 80% reduction in parasitemia are selected from this primary screening for carrying out dose response analysis using the respective test molecules from 10 μM to 1 nM dilution series. Data from this experiment is used for the calculation of IC50 values for the respective test molecules. • b) Anti-toxoplasma screening: For screening bioactivity of test molecules against T. gondii, a transgenic line of the parasite expressing the luciferase gene is used. The parental parasite used to generate the TgLuc+ strain is a Type I (RH) virulent strain (ATCC reference 50174D), which can also be used for in vivo studies in mice, if needed. The tachyzoite stage of the parasites are routinely cultured in the laboratory using standard protocols [Roos et al., 1994. In brief, a confluent monolayer of Human Foreskin Fibroblast (HFF; ATCC reference SCRS-1041) cells in culture are used as the host cells for infection with tachyzoite stage T. gondii. The culture media used to grow parasites is standard complete DMEM (Gibco BRL, USA) containing glucose (5.5 mM), glutamine (2 mM), Hepes (25 mM) and 1% dialyzed bovine fetal calf serum (Gibco BRL, USA). For bioactivity assays, the HFF cells are grown in 96 well plates and each well is infected with 1×10^4 TgLuc+ parasitesin the presence of 10 μM of test molecules (in primary screens) in a total volume of 200 μL. After 2 days of incubation and growth in a 37° C. incubator maintaining 5% CO2, the 96 well plates are processed for luminescence measurements using the reagents in the luciferase assay kit (Promega, USA). […]

T. gondii = test: Anti-toxoplasma screening, luciferase-expressing T. gondii (TgLuc+) in HFF cells, luminescence; type: cell-based; conditions: for inhibition at 10 µM: 48 h, primary screen, TgLuc+ tachyzoites in HFF cells, 2 days
Experimental: as §1

In the case of `C[Si]1(C)CCN(Cc2ccc(-c3cc(C(=O)NCCN4CCCC4)c4cc(F)ccc4n3)cc2)CC1` [NDS 100950, 2-(4-((4,4-dimethyl-1,4-azasilinan-1-yl)methyl)phenyl)-6-fluoro-N-(2-(pyrrolidin-1-yl)ethyl)quinoline-4-carboxamide], the inhibition at 10 µM [1] is reported as 95.7%, the EC50 [1] is reported as 0.06 µM and the inhibition at 10 µM (T. gondii) is reported as 95.2%. The EC50 (T. gondii; HFF, dose response, 10 μM to 1 nM dilution series) was 3.94 µM.

Work on `C[Si]1(C)CCN(CCNC(=O)c2cc(-c3ccc(CN4CCOCC4)cc3)nc3ccc(F)cc23)CC1` [NDS 100951, N-(2-(4,4-dimethyl-1,4-azasilinan-1-yl)ethyl)-6-fluoro-2-(4-(morpholinomethyl)phenyl)quinoline-4-carboxamide] yielded an inhibition at 10 µM [1] of 93.6%, an EC50 [1] of 0.05 µM and an inhibition at 10 µM (T. gondii) of 21.8%.

`C[Si]1(C)CCN(C(=O)c2cc(-c3ccc(CN4CCOCC4)cc3)nc3ccc(F)cc23)CC1` [NDS 101006, (4,4-dimethyl-1,4-azasilinan-1-yl)(6-fluoro-2-(4-(morpholinomethyl)phenyl)quinolin-4-yl)methanone] showed an inhibition at 10 µM [1] of 1.87% and an inhibition at 10 µM (T. gondii) of 0%.

`C[Si]1(C)CCN(Cc2ccc(-c3cc(C(=O)N4CCOCC4)c4cc(F)ccc4n3)cc2)CC1` [NDS 101007, (2-(4-((4,4-dimethyl-1,4-azasilinan-1-yl)methyl)phenyl)-6-fluoroquinolin-4-yl)(morpholino)methanone] was tested, and the inhibition at 10 µM [1] was 2.79% and the inhibition at 10 µM (T. gondii) was 3%.

`C[Si]1(C)CCN(Cc2ccc(-c3cc(C(=O)NCCN4CCOCC4)c4cc(F)ccc4n3)cc2)CC1` [NDS 101008, 2-(4-((4,4-dimethyl-1,4-azasilinan-1-yl)methyl)phenyl)-6-fluoro-N-(2-morpholinoethyl)quinoline-4-carboxamide] showed an inhibition at 10 µM [1] of 95.9%, an EC50 [1] of 1.26 µM and an inhibition at 10 µM (T. gondii) of 3%.

For `C[Si]1(C)CCN(Cc2ccc(-c3cc(C(=O)Nc4ccccn4)c4cc(F)ccc4n3)cc2)CC1` [NDS 101009, 2-(4-((4,4-dimethyl-1,4-azasilinan-1-yl)methyl)phenyl)-6-fluoro-N-(pyridin-2-yl)quinoline-4-carboxamide], the inhibition at 10 µM [1] was 97.1%, the EC50 [1] was 0.81 µM and the inhibition at 10 µM (T. gondii) was 31%.

`C[Si](C)(C)CCNC(=O)c1cc(-c2ccc(CN3CCOCC3)cc2)nc2ccc(F)cc12` [NDS 101037, 6-fluoro-2-(4-(morpholinomethyl)phenyl)-N-(2-(trimethylsilyl)ethyl)quinoline-4-carboxamide] was tested, and the inhibition at 10 µM [1] was 9.16% and the inhibition at 10 µM (T. gondii) was 45%.

For `C[Si]1(C)CCN(Cc2ccc(-c3cc(C(=O)NCCN4CCCCC4)c4cc(F)ccc4n3)cc2)CC1` [NDS 101074, 2-(4-((4,4-dimethyl-1,4-azasilinan-1-yl)methyl)phenyl)-6-fluoro-N-(2-(piperidin-1-yl)ethyl)quinoline-4-carboxamide], the inhibition at 10 µM [1] was 78.8% and the EC50 [1] was 0.112 µM.

`CN1CCN(CCNC(=O)c2cc(-c3ccc(CN4CC[Si](C)(C)CC4)cc3)nc3ccc(F)cc23)CC1` [NDS 101075, 2-(4-((4,4-dimethyl-1,4-azasilinan-1-yl)methyl)phenyl)-6-fluoro-N-(2-(4-methylpiperazin-1-yl)ethyl)quinoline-4-carboxamide] showed an inhibition at 10 µM [1] of 95.2% and an EC50 [1] of 0.403 µM.

In the case of `C[Si]1(C)CCN(Cc2ccc(-c3cc(C(=O)NCCO)c4cc(F)ccc4n3)cc2)CC1` [NDS 101076, 2-(4-((4,4-dimethyl-1,4-azasilinan-1-yl)methyl)phenyl)-6-fluoro-N-(2-hydroxyethyl)quinoline-4-carboxamide], the inhibition at 10 µM [1] is reported as 81.4% and the EC50 [1] is reported as 6.12 µM.

`C[Si]1(C)CCN(Cc2ccc(-c3cc(C(=O)NCCN4CCSCC4)c4cc(F)ccc4n3)cc2)CC1` [NDS 101077, 2-(4-((4,4-dimethyl-1,4-azasilinan-1-yl)methyl)phenyl)-6-fluoro-N-(2-thiomorpholinoethyl)quinoline-4-carboxamide] gave an inhibition at 10 µM [1] of 95.5% and an EC50 [1] of 0.95 µM.
